From patent publication US9073915B2, “Substituted pyrimidone derivatives” (SANOFI, priority 2008, dated 2015)
Where a name gives a salt, the structure may show the parent alone.

Columns and labels:
[1] = molecular target: GSK3β (Homo sapiens, UniProt P49841); test: Inhibitory activity against GSK3β (33P-ATP phosphorylation of prephosphorylated GS1 peptide, filter assay); format: biochemical; conditions: protocol 3: 7.5 μM GS1 peptide, 10 μM ATP, 50 mM Hepes pH 7.2, one hour at room temperature
Experimental: Four different protocols can be used. […]
The reaction was stopped with 100 microliters of a solution made of 25 g polyphosphoric acid (85% P2O5), 126 ml 85% H3PO4, H2O to 500 ml and then diluted to 1:100 before use. […] Incorporated ^33P radioactivity was determined by liquid scintillation spectrometry. […]

GSK3β, sequence (P49841 whole entry): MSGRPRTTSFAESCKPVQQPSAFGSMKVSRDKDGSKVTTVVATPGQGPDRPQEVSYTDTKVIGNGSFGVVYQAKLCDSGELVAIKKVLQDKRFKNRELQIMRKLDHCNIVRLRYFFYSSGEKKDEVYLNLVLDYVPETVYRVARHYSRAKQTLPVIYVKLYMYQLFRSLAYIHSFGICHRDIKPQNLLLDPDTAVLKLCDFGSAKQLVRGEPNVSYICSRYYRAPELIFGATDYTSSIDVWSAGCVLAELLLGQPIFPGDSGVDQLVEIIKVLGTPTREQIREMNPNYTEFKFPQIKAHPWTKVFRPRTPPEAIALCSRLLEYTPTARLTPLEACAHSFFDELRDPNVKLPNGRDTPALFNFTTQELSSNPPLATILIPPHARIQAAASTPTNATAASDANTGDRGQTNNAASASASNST

melting point [°C] | IC50 [1] [nM] | SMILES
220 to 224 |  | COc1ccccc1CCc1cccn2c(=O)cc(-c3ccncc3)nc12 (as salt: hydrochloride) [compound 7, 9-[2-(2-Methoxy-phenyl)-ethyl]-2-pyridin-4-yl-pyrido[1,2-a]pyrimidin-4-one]
261 to 262 |  | O=c1cc(-c2ccncc2)nc2cc(-c3ccccc3)ccn12 (as salt: salt) [Compound No. 4, 8-Phenyl-2-pyridin-4-yl-pyrido[1,2-a]pyrimidin-4-one]
 | 490 | O=c1cc(-c2ccncc2)nc2cc(-c3ccccc3)ccn12 [Compound No. 4, 8-Phenyl-2-pyridin-4-yl-pyrido[1,2-a]pyrimidin-4-one]
 | 30 | COc1ccccc1CCc1cccn2c(=O)cc(-c3ccncc3)nc12 [compound 7, 9-[2-(2-Methoxy-phenyl)-ethyl]-2-pyridin-4-yl-pyrido[1,2-a]pyrimidin-4-one]
